From US12091656B2, “Method for generating higher order genome editing libraries” (Johann Wolfgang Goethe-Universität Frankfurt am Main, priority 2016, dated 2024)

How the values were obtained:
RPE1 cells [1] = test: Titration of CYSLTR2 antagonists against Doxorubicin, AlamarBlue cell viability assay; format: cell-based, human; conditions: 4 days
Experimental: FIG. 6: Identifying Doxorubicin resistance with an optimized 3Cs-gRNA library. A) Experimental scheme illustrating the usage of hTERT-RPE1 cells, transduced with lentiviral particles (MOI=1) and selected with 1 μM Doxorubicin for three weeks. B) NGS- and bioinformatically-based identification of Doxorubicin-resistance inducing gRNAs and their location within annotated human genomic DNA. C) The CYSLTR2 gene is a reproducible protein-coding hit for which two chemical inhibitors are commercially available. Both inhibitors are titrated versus increasing concentrations of Doxorubicin and induce resistance to Doxorubicin.
Of all remaining gRNAs, 45.6% are located in coding regions, 22.2% are in introns and 10.5% are in non-coding (RNA coding) regions (FIG. 6b). However, 21.7% of gRNAs are located in genomic regions for which no biotype could be assigned, indicating a gap of knowledge for those regions (FIG. 6b). To validate some of the findings in a CRISPR/Cas independent manner, the protein-coding hit gene CYSLTR2 was chosen for which two chemical antagonists are commercially available. The inventors titrated increasing concentrations of Doxorubicin against increasing concentrations of the two compounds (BayCysLTR2 and Bay u9773) and incubated drug exposed RPE1 cells for 4 days after which they were subject to the cell viability assays AlamarBlue.

RPE1 cells [2] = test: Doxorubicin effect on RPE1 cell viability (unperturbed conditions); format: cell-based, human; conditions: within 4 days

Structure (SMILES) | strength of the reversion effect compared with the other CYSLTR2 antagonist (RPE1 cells [1]; FIG. 6c) | reversion of the cytotoxic effect of Doxorubicin (RPE1 cells [1]; increasing concentrations titrated against increasing Doxorubicin) | reduction of RPE1 cell viability (RPE1 cells [2])
CCCCC/C=C\C\C=C/C=C/C=C/[C@@H](Sc1ccc(C(=O)O)cc1)[C@@H](O)CCCC(=O)O [Bay u9773] | reproducibly stronger effect | able to revert the cytotoxic effect of Doxorubicin in a dose-dependent manner | 
COc1cccc2c1C(=O)c1c(O)c3c(c(O)c1C2=O)C[C@@](O)(C(=O)CO)C[C@@H]3O[C@H]1C[C@H](N)[C@H](O)[C@H](C)O1 [Doxorubicin] |  |  | robust and dose-dependent reduction of RPE1 cell viability
